Results reported in patent US7723358B2, “Aroyl-O-piperidine derivatives for the treatment of diabetes-related problems” (Merck Patent GmbH, priority 2004, dated 2010).

Legend:
[1] = molecular target: T1, microsomal triglyceride transfer protein (MTP) (Mesocricetus auratus, UniProt P55158); assay: Inhibition of MTP activity: transfer of [3H]-triolein from donor liposomes to biotinylated LDL, SPA; assay type: biochemical; conditions: MTP from golden hamster liver; incubation 18-24 hours at 37° C.; read-out: IC50, concentration that allows a 50% inhibition of MTP
T1 construct: The supernatant comprising the soluble MTP is dialysed against Tris/HCl 150 mM; from tissue; host or cells: golden hamster liver microsomes, deoxycholate-solubilised supernatant, dialysed
T1 sequence (P55158 19-895): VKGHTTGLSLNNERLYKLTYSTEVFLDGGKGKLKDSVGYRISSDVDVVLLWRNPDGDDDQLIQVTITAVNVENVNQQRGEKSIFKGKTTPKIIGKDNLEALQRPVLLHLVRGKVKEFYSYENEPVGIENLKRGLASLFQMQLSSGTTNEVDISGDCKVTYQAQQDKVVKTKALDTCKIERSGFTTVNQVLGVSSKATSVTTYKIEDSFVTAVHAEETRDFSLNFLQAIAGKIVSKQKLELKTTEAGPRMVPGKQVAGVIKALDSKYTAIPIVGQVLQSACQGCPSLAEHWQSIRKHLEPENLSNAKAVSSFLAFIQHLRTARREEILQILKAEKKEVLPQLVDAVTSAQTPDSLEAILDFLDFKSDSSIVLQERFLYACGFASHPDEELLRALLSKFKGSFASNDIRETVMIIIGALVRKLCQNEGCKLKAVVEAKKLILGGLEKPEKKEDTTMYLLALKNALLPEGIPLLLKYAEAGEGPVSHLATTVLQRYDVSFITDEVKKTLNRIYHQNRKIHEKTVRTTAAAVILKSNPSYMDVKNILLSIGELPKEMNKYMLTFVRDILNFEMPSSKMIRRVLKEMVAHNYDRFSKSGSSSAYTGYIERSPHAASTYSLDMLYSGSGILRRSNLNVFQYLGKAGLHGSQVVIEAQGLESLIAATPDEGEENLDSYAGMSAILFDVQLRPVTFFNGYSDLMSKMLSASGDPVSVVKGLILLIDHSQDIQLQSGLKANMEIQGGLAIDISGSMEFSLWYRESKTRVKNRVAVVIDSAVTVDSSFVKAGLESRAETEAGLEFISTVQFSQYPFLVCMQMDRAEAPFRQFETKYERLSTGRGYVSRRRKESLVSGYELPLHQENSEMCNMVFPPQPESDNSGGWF
Method in brief: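 Soluble MTP was extracted with deoxycholate from golden hamster liver microsomes. It was incubated with [3H]-triolein/phosphatidylcholine donor liposomes, biotinylated LDL acceptors and compound in DMSO in HEPES/NaCl/BSA buffer, pH 7.4, for 18-24 h at 37° C. Transfer was read with streptavidin SPA beads, and IC50 was taken as 50% inhibition of transfer.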

[2] = tested on: apo B secretion in HepG2 cells; assay: Secretion of apo B in the HepG2 human cell line (sandwich-ELISA); assay type: cell-based; conditions: 24 hours incubation, culture supernatant, read-out: IC50, concentration that produces a 50% inhibition of apo B secretion in the HepG2 cells
Method: Analysis of the Secretion of apo B in the HepG2 Human Cell Line:
The activity of a compound according to the invention can be evaluated by measuring the inhibition of apo B secretion in HepG2 cells.
The HepG2 cells (ECACC—No. 85011430) are used as model in the study of the in vitro hepatic secretion of lipoproteins (Dixon J. and Ginsberg H., J., Lipid. Res., 1993, 34, 167-179).
The HepG2 cells are cultured in Dulbecco's modified Eagle's medium comprising 10% foetal calf serum (DMEM and FBS—Gibco) in 96-well plates under an atmosphere of 5% carbon dioxide for 24 hours (about 70% confluence).
The test compounds are dissolved at a concentration of 2 or 10 mM in dimethyl sulfoxide (DMSO). Serial dilutions (1:3.16) are made in DMSO and are added (1:200—Robot Multimek Beckman) to the growth medium (200 μL) and then finally incubated for 24 hours in the various wells containing the HepG2 cells.
The 24-hour culture supernatant diluted to 1:5 (phosphate-buffered saline:PBS comprising 1% bovine serum albumin) is tested according to a sandwich-ELISA method specific for human apo B.
The results are expressed in terms of IC50, i.e. the concentration that produces a 50% inhibition of apo B secretion in the HepG2 cells.

Row | SMILES | IC50 [1] [nM] | IC50 [2] [nM]
1 | Cc1cccc(C(=O)Nc2cccc(OC3CCN(S(=O)(=O)c4ccccc4)CC3)c2)c1-c1ccc(OC(F)(F)F)cc1 [Example 15, 6-methyl-N-[3-[[1-(phenylsulfonyl)-4-piperidinyl]oxy]phenyl]-4′-(trifluoro-methoxy)[1,1′-biphenyl]-2-carboxamide] | 55.6 | 28.2
2 | COCCOC(=O)N1CCC(Oc2cccc(NC(=O)c3ccccc3-c3ccc(OC(F)(F)F)cc3)c2)CC1 [Example 74] | 110 | 83
3 | COC(=O)c1ccccc1NC(=O)N1CCC(Oc2cccc(NC(=O)c3cccc(C)c3-c3ccc(OC(F)(F)F)cc3)c2)CC1 [Example 36, methyl 2-[[[4-[3-[[[6-methyl-4′-(trifluoro-methoxy)[1,1′-biphenyl]-2-yl]carbonyl]-amino]phenoxy]-1-piperidinyl]carbonyl]-amino]benzoate] | 51.3 | 67.8
4 | COc1ccc(NC(=O)N2CCC(Oc3cccc(NC(=O)c4cccc(C)c4-c4ccc(OC(F)(F)F)cc4)c3)CC2)cc1 [Example 26] | 72.8 | 75.8
5 | COc1ccc(C(=O)N2CCC(Oc3cccc(NC(=O)c4cccc(C)c4-c4ccc(OC(F)(F)F)cc4)c3)CC2)cc1 [Example 98, N-[3-[[1-(4-methoxybenzoyl)-4-piperidin-yl]oxy]phenyl]-6-methyl-4′-(trifluorometh-oxy)[1,1′-biphenyl]-2-carboxamide] | 101 | 67.1
6 | Cc1cccc(C(=O)Nc2cccc(OC3CCN(C(=O)Oc4ccc([N+](=O)[O-])cc4)CC3)c2)c1-c1ccc(OC(F)(F)F)cc1 [Example 9, 4-nitrophenyl 4-[3-[[[6-methyl-4′-(trifluoro-methoxy)[1,1′-biphenyl]-2-yl]carbonyl]-amino]phenoxy]-1-piperidinecarboxylate] | 51.8 | 7.9
7 | COC(=O)N1CCC(Oc2cccc(NC(=O)c3ccccc3-c3ccc(C(F)(F)F)cc3)c2)CC1 [Example 72, methyl 4-[3-[[[4′-(trifluoromethyl)[1,1′-biphenyl]-2-yl]carbonyl]amino]phenoxy]-1-piperidinecarboxylate] | 42.2 | 4.6
8 | CCCCS(=O)(=O)N1CCC(Oc2cccc(NC(=O)c3cccc(C)c3-c3ccc(OC(F)(F)F)cc3)c2)CC1 [Example 22] | 45 | 12.7
9 | Cc1cccc(C(=O)Nc2cccc(OC3CCN(S(=O)(=O)Cc4ccccc4)CC3)c2)c1-c1ccc(OC(F)(F)F)cc1 [Example 16] | 42.5 | 15.9
10 | Cc1cccc(C(=O)Nc2cccc(OC3CCN(C(=O)NCCc4ccccc4)CC3)c2)c1-c1ccc(OC(F)(F)F)cc1 [Example 40, 4-[3-[[[6-methyl-4′-(trifiuoromethoxy)[1,1′-biphenyl]-2-yl]carbonyl]amino]phenoxy]-N-(2-phenylethyl)-1-piperidinecarbox-amide] | 69.1 | 13.7
11 | COc1ccc(CC(=O)N2CCC(Oc3cccc(NC(=O)c4cccc(C)c4-c4ccc(OC(F)(F)F)cc4)c3)CC2)cc1 [Example 101, N-[3-[[1-[2-(4-methoxyphenyl)acetyl]-4-piperidinyl]oxy]phenyl]-6-methyl-4′-(trifluoromethoxy)[1,1′-biphenyl]-2-carboxamide] | 160 | 92.6
12 | COc1ccc(C(=O)N2CCC(Oc3cccc(NC(=O)c4cccc(C)c4-c4ccc(OC(F)(F)F)cc4)c3)CC2)cc1OC [Example 103] | 130 | 68.4
13 | CCCCOC(=O)CNC(=O)N1CCC(Oc2cccc(NC(=O)c3cccc(C)c3-c3ccc(OC(F)(F)F)cc3)c2)CC1 [Example 44, butyl N-[[4-[3-[[[6-methyl-4′-(trifluorometh-oxy)[1,1′-biphenyl]-2-yl]carbonyl]amino]-phenoxy]-1-piperidinyl]carbonyl]glycinate] | 171 | 7.4
14 | Cc1cccc(C(=O)Nc2cccc(OC3CCN(C(=O)Nc4ccc5c(c4)OCO5)CC3)c2)c1-c1ccc(OC(F)(F)F)cc1 [Example 56, N-1,3-benzodioxol-5-yl-4-[3-[[[6-methyl-4′-(trifluoromethoxy)[1,1′-biphenyl]-2-yl]-carbonyl]amino]phenoxy]-1-piperidine-carboxamide] | 146 | 37.6

The next lines start with the values.

Row | IC50 [1] [nM] | IC50 [2] [nM] | SMILES
15 | 213 | 25.7 | CC(=O)OCC(=O)N1CCC(Oc2cccc(NC(=O)c3cccc(C)c3-c3ccc(OC(F)(F)F)cc3)c2)CC1 [Example 102, N-[3-[[1-[2-(acetyloxy)acetyl]-4-piperidin-yl]oxy]phenyl]-6-methyl-4′-(trifluorometh-oxy)[1,1′-biphenyl]-2-carboxamide]
16 | 55.5 | 25.2 | Cc1cccc(C(=O)Nc2cccc(OC3CCN(C(=O)OCC(C)C)CC3)c2)c1-c1ccc(OC(F)(F)F)cc1 [Example 8, 2-methylpropyl 4-[3-[[[6-methyl-4′-(trifluoromethoxy)[1,1-biphenyl]-2-yl]carbonyl]amino]phenoxy]-1-piperidine-carboxylate]
17 | 166 | 72.8 | Cc1cccc(C(=O)Nc2cccc(OC3CCN(C(=O)C(C)C)CC3)c2)c1-c1ccc(OC(F)(F)F)cc1 [Example 142, 6-methyl-N-[3-[[1-(2-methyl-1-oxopropyl)-4-piperidinyl]oxy]phenyl]-4′-(trifluorometh-oxy)[1,1′-biphenyl]-2-carboxamide]
18 | 39.2 | 12.2 | CSC(=O)N1CCC(Oc2cccc(NC(=O)c3cccc(C)c3-c3ccc(OC(F)(F)F)cc3)c2)CC1 [Example 10]
19 | 139 | 54.1 | Cc1cccc(C(=O)Nc2cccc(OC3CCN(C(=O)c4ccno4)CC3)c2)c1-c1ccc(OC(F)(F)F)cc1 [Example 100, N-[3-[[1-(5-isoxazolylcarbonyl)-4-piperi-dinyl]oxy]phenyl]-6-methyl-4′-(trifluoro-methoxy)[1,1′-biphenyl]-2-carboxamide]
20 | 49.2 | 10.6 | Cc1cccc(C(=O)Nc2cccc(OC3CCN(S(C)(=O)=O)CC3)c2)c1-c1ccc(OC(F)(F)F)cc1 [Example 3, 6-methyl-N-[3-[[1-(methylsulfonyl)-4-piperidinyl]oxy]phenyl]-4′-(trifluoro-methoxy)[1,1′-biphenyl]-2-carboxamide]
21 | 114 | 62.7 | Cc1cccc(C(=O)Nc2cccc(OC3CCN(S(=O)(=O)C(C)C)CC3)c2)c1-c1ccc(OC(F)(F)F)cc1 [Example 14, 6-methyl-N-[3-[[1-[(1-methyl-ethyl)sulfonyl]-4-piperidinyl]oxy]phenyl]-4′-(trifluoromethoxy)[1,1′-biphenyl]-2-carboxamide]
22 | 100 | 22.2 | C/C=C/C(=O)N1CCC(Oc2cccc(NC(=O)c3cccc(C)c3-c3ccc(OC(F)(F)F)cc3)c2)CC1 [Example 128, 6-methyl-N-[3-[[1-[(2E)-1-oxo-2-butenyl]-4-piperidinyl]oxy]phenyl]-4′-(trifluorometh-oxy)[1,1′-biphenyl]-2-carboxamide]
